Measurements as given in patent US11559518B2, “Endoplasmic reticulum stress regulator comprising benzothiazoimidazolyl compound” (ER Stress Research Institute, Inc., priority 2017, dated 2023).

Experiments:
[1] = tested on: endoplasmic reticulum stress response (EUA activity) in 293A transformed cells; assay: Endoplasmic reticulum stress reporter (10×ERSE2-10×UPRE-5×AARE-EGFP) fluorescence under Tunicamycin; assay type: cell-based; details: for inhibition at 5 µM: 293A, read-out: Endoplasmic reticulum stress inhibition rate (Z)%; for Suppression of EUA activity (endoplasmic reticulum stress response activation) caused by Tunicamycin: FIG. 5
[2] = tested on: 293A transformed cell line; assay: Intracellular ATP level (viability) of Tm-treated 293A transformed cell line; assay type: cell-based; details: Tm treatment; 43 hours; FIG. 9
Experimental: (§1) Intracellular ATP level or activity of lactate dehydrogenase (LDH), which is released from cells that have been damaged in the cell membrane, were measured in order to confirm the effect of Compound No. 1 against cell growth or cytotoxicity. […] Each were measured using an ATP assay kit (Promega, Celltiter-glo) and LDH activity measurement kit (Dojindo, Cytotoxicity LDH Assay Kit-WST) using a multiplate reader, Cytation 3 (Bio-Tek) according to the protocols of the kits (number of tests n=4).

[3] = tested on: 293A transformed cell line; assay: Lactate dehydrogenase (LDH) release (cytotoxicity) of Tm-treated 293A transformed cell line; assay type: cell-based; details: 43 hours, FIG. 10
Experimental: as §1

[4] = tested on: 293A transformed cell line; details: FIG. 8; for Cell proliferation on treatment with the stress inducer / cytotoxic compound alone: no test compound added
Experimental: It is noted that in addition to Tm, camptothecin (CPT) was also used as a compound to confer cytotoxicity, and this was used as a positive control for cell death. Cell proliferation rate was determined by obtaining bright field images using a high content confocal imaging system (PerkinElmer, Operetta CLS) at intervals of 4 hours after starting the experiment, and calculating cell density from the bright field image using an image analysis software Harmony (PerkinElmer).

[5] = Compound concentration: 5 μM, Tm-induced, EGFP fluorescence

Compound	inhibition at 5 µM [1, 5] [%]	further results
COC(=O)c1ccc2c(c1)sc1nc(-c3ccccc3)cn12 [compound 2]	100	
Fc1ccccc1-c1cn2c(n1)sc1ccccc12 [compound 5]	79	
O=C(NCCCN1CCCCC1)c1ccc2c(c1)sc1nc(-c3ccccc3)cn12 [compound 10]	41	
CCCC(=O)NCCc1csc(-c2ccc(Cl)cc2)n1 [Azoramide]		Suppression of EUA activity (endoplasmic reticulum stress response activation) caused by Tunicamycin ([1]; 40 μM): had an inhibitory effect; Endoplasmic reticulum stress inhibition rate (Z)% [1, 5]: 0%; Intracellular ATP level recovered, % of that of UT cells [2]: approximately 75%; LDH activity increased by Tm treatment, decreased to % of that of UT cells [3]: approximately 50%; Cell proliferation recovered, % of that of UT cells ([4]; 40 μM, 0.2 μg/mL Tm): approximately 58%
Cc1ccc(-c2cn3c(n2)sc2cc(C(=O)NCCCN4CCCCC4C)ccc23)cc1 (centres unmarked) [compound 7]	95	
CCc1ccc(-c2cn3c(n2)sc2cc(C(=O)OC)ccc23)cc1 [compound 4]	99	
CCN(CC)CCCNC(=O)c1ccc2c(c1)sc1nc(-c3ccccc3)cn12 [compound 9]	61	
Cc1ccc(-c2cn3c(n2)sc2cc(C(=O)NCCCN4CCOCC4)ccc23)cc1 [compound 11]	66	
O=C([O-])CCCc1ccccc1.[Na+] [4PBA, Sodium 4-phenylbutyrate, reference compound]	0	Suppression of EUA activity (endoplasmic reticulum stress response activation) caused by Tunicamycin ([1]; concentration not given): could not suppress
CS(=O)(=O)c1ccc2c(c1)sc1nc(-c3ccccc3Cl)cn12 [compound 12]	54	
COc1cccc(-c2cn3c(n2)sc2cc(C(=O)NCCCN4CCOCC4)ccc23)c1 [compound 8]	98	
Tunicamycin [Tm]		Cell proliferation on treatment with the stress inducer / cytotoxic compound alone [4]: almost completely inhibited
CC[C@@]1(O)C(=O)OCc2c1cc1n(c2=O)Cc2cc3ccccc3nc2-1 [camptothecin]		Cell proliferation on treatment with the stress inducer / cytotoxic compound alone [4]: almost completely inhibited
CCOC(=O)C1CCN(C(=O)c2ccc3c(c2)sc2nc(-c4ccc(OC)cc4)cn23)CC1 [compound 13]	60	
Clc1ccc(-c2cn3c(n2)sc2ccccc23)cc1 [compound 3]	101	
C[C@H](CCC(=O)NCCS(=O)(=O)O)[C@H]1CC[C@H]2[C@@H]3[C@@H](O)C[C@@H]4C[C@H](O)CC[C@]4(C)[C@H]3CC[C@]12C [TUDCA, Tauroursodeoxycholic Acid, reference compound]	0	Suppression of EUA activity (endoplasmic reticulum stress response activation) caused by Tunicamycin ([1]; concentration not given): could not suppress
CCN(CC)CCCNC(=O)c1ccc2c(c1)sc1nc(-c3ccc(OC)cc3)cn12 [compound 6]	93	
